The text below walks through data of US8709396B2, “Method and composition for attracting arthropods by volatizing an acid” (Premark FEG L.L.C., priority 2002, dated 2014).

This assay deals with Aedes aegypti (AE) mosquitoes. Description: olfactometer two-stimulus choice test, average percent of mosquitoes attracted. The assay is classed as in vivo. The settings on record: for attraction of mosquitoes, result in words: olfactometer, AE mosquitoes, summary statements of the text. The protocol:
100 Aedes aegypti (AE) mosquitoes were placed into an olfactometer unit. For each test, the mosquitoes were exposed to two sets of stimuli for a collection period of 3 minutes. The mosquitoes could choose between the stimuli or not respond.
For the first test, ferric chloride hexahydrate was impregnated on diatomaceous earth and was activated with a moisture containing substance to form the first stimulus center. This material released water and trace amounts of hydrochloric acid, HCl. The second stimulus center in this test was a blank (no chemical stimulus).
For the second test, dry carbon dioxide was fed at 5 ml/min from a standard gas cylinder as the first stimulus center. The second stimulus center in this test was a blank (no chemical stimulus).
For the third test, ferric chloride hexahydrate was impregnated on diatomaceous earth and was activated with a moisture containing substance to form the first stimulus center. This material released water and trace amounts of hydrochloric acid, HCl. The second stimulus center was dry carbon dioxide fed at 5 ml/min from a standard gas cylinder.
As with Example 1, 100 AE mosquitoes were placed into an olfactometer unit. For each test, the mosquitoes were exposed to two sets of stimuli for a collection period of 3 minutes. The mosquitoes could choose between the stimuli or not respond.
For the first test, dry carbon dioxide was fed at 5 ml/min from a standard gas cylinder as the first stimulus center. The second stimulus center in this test was a blank (no chemical stimulus).
For the second test, ferric chloride hexahydrate impregnated on diatomaceous earth and sodium bicarbonate powder were contained in a sachet. The sachet was activated by combining the two powders stimulating a chemical reaction that released carbon dioxide, water and trace amounts of hydrochloric acid, forming the first stimulus center. The reaction produces by-product water that stimulates hydrochloric acid production from the ferric chloride. The sachet was designed to release CO2 at a rate of 5 ml/min over the collection period. The second stimulus center in this test was a blank (no chemical stimulus).
For the third test, a sachet containing ferric chloride hexahydrate impregnated on diatomaceous earth and sodium bicarbonate powder, similar to the sachet used in the second test, was activated with a moisture-containing substance to release carbon dioxide water and trace amounts of hydrochloric acid, forming the first stimulus center. The reaction produces by-product water that stimulates hydrochloric acid production from the ferric chloride. The second stimulus center was carbon dioxide fed at 5 ml/min from a standard gas cylinder.
As with Examples 1 and 2, 100 AE mosquitoes were placed into an olfactometer unit. For each test, the mosquitoes were exposed to two sets of stimuli for a collection period of 3 minutes. The mosquitoes could choose between the stimuli or not respond.
For the first test, ferric chloride hexahydrate impregnated on a diatomaceous earth was activated with a moisture containing substance to form the first stimulus center. This material released water and trace amounts of hydrochloric acid, HCl. The second stimulus center in this test was a blank (no chemical stimulus).
The sachet was activated by combining the two powders stimulating a chemical reaction that released carbon dioxide, water and trace amounts of hydrochloric acid, forming the first stimulus center. The reaction produces by-product water that stimulates hydrochloric acid production from the ferric chloride. The sachet was designed to release carbon dioxide at a rate of 5 ml/min. The second stimulus center in this test was a blank.
For the third test, a sachet identical to that used in the second test and containing ferric chloride hexahydrate impregnated on diatomaceous earth and sodium bicarbonate powder was activated, forming the first stimulus center.

Consider `O=C=O` [CO2 (Dry), carbon dioxide], for which the “Stimulant 2 - Avg. % attracted” value (100 AE mosquitoes, 3 min, first stimulus center Activated Ferric Chloride) is reported as 12%; the “Stimulant 2 - Avg. % attracted” value (100 AE mosquitoes, 3 min, first stimulus center CO2/HCl/H2O Sachet) came to 2%; the “Stimulant 2 - Avg. % attracted” value (Example 4: CO2 5 mL/min, 3 min, first stimulus center CO2 flowing over water surface) is on record as 7%. Also, the “Stimulant 1 - Avg. % attracted” value is 21% (100 AE mosquitoes, 3 min collection, second stimulus center blank (Examples 1-3)) and 15% (Example 4: dry CO2 5 mL/min through tube or cartridge, 100 AE mosquitoes, 3 min, second stimulus center blank). The “attraction of mosquitoes, result in words” value was “is an attractant for mosquitoes” (listed as CO2 (dry)) and “did not draw significant numbers” (listed as carbon dioxide).
